In a melting point compilation (Tetko et al.; mined from patent text by program, amines drawn as free bases though some values may be those of a salt):

| melting point | SMILES |
| --- | --- |
| 194 to 196 °C | COc1cc2c(cc1OC)-c1c(C(=O)c3ccccc3)c(-c3cc(C)c(O)c(C)c3)c(C)n1CC2 |
| 269 to 272 °C | O=c1cc(Nc2ccc3c(c2)CCC3)[nH]c(=S)[nH]1 |
| 72 to 75 °C | C=CCNC(=O)c1c([Si](C)(C)C)sc2ccccc12 |
| 171 to 172 °C | COC(=O)Nc1ccc(N)c([N+](=O)[O-])c1 |
| 106 °C | COP(=O)(Cc1ccc(CP(=O)(OC)OC)cc1)OC |
| 140 to 143 °C | CC(SC(=O)c1ccccc1)C(=O)N(CC(=O)O)C1CC1 (configuration not stated) |
| 69 to 70 °C | CN(C)CCON=C1c2ccccc2C2CC2c2ccccc21 (configuration not stated) |
| 217 to 219 °C | NS(=O)(=O)c1cc2c(s1)S(=O)(=O)CC(Br)C2O (configuration not stated) |
| 43 to 44 °C | CCCCCCCC(CC(=O)O)CC(=O)O |
| 204 to 205 °C | CCn1c(=N)c(-c2cccs2)cc2cnc(Nc3ccccc3)nc21 |
| 93 °C | Cc1ccc(S(=O)(=O)NCCCN(C)S(=O)(=O)c2ccc(C)cc2)cc1 |
| 180 to 182 °C | O=C(O)CCC(=NOCc1ccc(OCc2cn3ccccc3n2)cc1)c1ccccc1 |
| 212 to 215 °C | O=C(OC1CCN(c2ccc3[nH]c(=O)ccc3c2)CC1)c1ccccc1 |
| 305 to 308 °C | Nc1cccc2c1C(=O)c1c(O)cccc1C2=O |
| 195 to 197 °C | c1coc(-c2n[nH]c3c2Cc2ccccc2-3)c1 |
| 73 to 74 °C | CCC(COc1cccc(C(F)(F)F)c1)OC(=O)NCc1ccccc1 (configuration not stated) |
| 110 °C | COc1ccc(Cn2c(-c3cc(OC)c(OC)c(OC)c3)nc3ccccc32)cc1 |
| 122 °C | Clc1ncnc2ccoc12 |
| > 200 °C | O=C(CCc1cccnc1)Nc1cccc(-c2ccnc3c(C(=O)c4cccs4)cnn23)c1 |
| 85 °C | C=CCOC(=O)c1cnn(-c2c(Cl)cc(Br)cc2Cl)c1N |
| 119 to 121 °C | COc1c(C(c2ccccc2)c2ccccc2)ccc2ccccc12 |
| 171 °C | NS(=O)(=O)c1ccc(-c2cscc2-c2ccccc2)cc1F |
| 188 to 193 °C | CC(=Cc1ccc(OCCCNc2ccc(Cl)cc2)cc1)C(=O)O |
| 137 to 138 °C | CNC(=O)N(O)C(C)c1ccc(F)c(Br)c1 (configuration not stated) |
| 160 to 162 °C | Cc1ccc2c(c1)N(C(=O)NCCN1CCC(CCCN(C(C)C)C(C)C)CC1)c1ncccc1NC2=O |

| melting point | SMILES |
| --- | --- |
| 283 °C | COc1cc2ccc(-c3ccc(C(=O)O)cc3)cc2cc1C(C)(C)C |
| 260 to 265 °C | CS(=O)(=O)Nc1cccc(C=C2SC(=S)NC2=O)c1 |
| 292 to 294 °C | N#Cc1ccc(-c2ccc3nc(-c4ccc(C#N)cc4)cn3c2)cc1 |
| 99 °C | CNc1c(CCO)cc(N)c([N+](=O)[O-])c1CCO |
| 256 to 258 °C | COc1ccc(C(=O)C2C(=O)c3cccc(NC(=O)Oc4ccccc4)c3C2=O)cc1 (configuration not stated) |
| 54 to 56 °C | CCCc1cc(I)ccc1O |
| 85 to 86 °C | N#CC(CCCOc1ccccc1)(Cn1cncn1)c1ccccc1 (configuration not stated) |
| 68 to 71 °C | CCON=C(C(N)=O)C(=O)OC |
| 235 to 238 °C | CCCc1nc2cc3c(cc2[nH]1)NC(=O)C3C (configuration not stated) |
| 106 to 108 °C | CCN(CC)CCNC(=O)c1cc(Cl)nc2ccc(I)cc12 |
| 145 °C | CC(C)(C)c1ccc(C2(Cl)CN(C(c3ccccc3)c3ccccc3)C2)cc1 |
| 137 to 138 °C | CNC(=O)C1=CN=C(N2CCN(C)CC2)CC1c1ccccc1C (racemic) |
| 117 to 119 °C | O=C(NCC1(O)CCCCCC1)c1cc(-c2cccnc2N2CCC(C(=O)O)CC2)ccc1Cl |
| 192 to 194 °C | CC(=O)Nc1ccc(OCCCCBr)c([N+](=O)[O-])c1 |
| 153 to 154 °C | COC(=O)c1ccc(-n2c(C)nc3ccccc32)cc1 |
| 46 to 47 °C | C#Cc1cc(C(C)(C)C)cc(C(C)(C)C)c1OCC |
| 163 to 165 °C | Clc1cccc2c1CN(Cc1c[nH]c3ccccc13)C2 |
| 179 to 182 °C | O=[N+]([O-])c1c(Cl)nc2ccccc2c1NCc1ccccn1 |
| 232 to 235 °C | CC(=O)On1cc(-c2ccccc2)c(=O)c(-c2cccc(C(F)(F)F)c2)c1 |
| 57 to 59 °C | CCOC(=O)N1CC(C)N(C(C)C(O)(Cn2cncn2)c2ccc(F)cc2F)CC1C (configuration not stated) |
| 180 °C | Cn1cc(-c2cc(-c3cccnc3)ccn2)n(-c2ccc(C(C)(C)C#N)cc2)c1=O |
| > 300 °C | O=C1NCN2c3ccccc3Oc3cccc1c32 |
| 193 to 194 °C | CCOC(=O)c1ncn(C)c1N |
| 140 to 142 °C | CCCc1nn(C)c2c(OCCOc3ccc(CC(OCC)C(=O)O)cc3)nc(CC)nc12 (configuration not stated) |
| 184 to 186 °C | CC(=O)Nc1ccc(C(=O)NC2CCN(C3CCCCC3)C2)cc1 (configuration not stated) |

| melting point | SMILES |
| --- | --- |
| 205 to 207 °C | COc1cc(OC)c(-c2cccn2C(=O)OC(C)(C)C)cc1/C=C/C(=O)c1ccc(C(=O)O)cc1 |
| 157 to 159 °C | O=C1N(N2CCOCC2)c2ccccc2C1(Cc1ccccn1)Cc1ccccn1 |
| 233 °C | N#Cc1cnn2c(C(F)(F)F)cc(-c3ccncc3)nc12 |
| 233 to 235 °C | COC(=O)C=Cc1ccc(-c2ccc(O)cc2)cc1 |
| 275 to 283 °C | Nc1nc(O)c2c(n1)NC[C@H](CCc1ccc(Br)cc1)C2 |
| 239 to 244 °C | O=C(O)c1cn(-c2csnn2)c2cc(F)c(F)cc2c1=O |
| 132 to 135 °C | CN(Cc1cc2c(=O)c(C(=O)NCc3ccc(Cl)cc3)cn(C)c2s1)CC(O)c1cccnc1 (single isomer, unassigned; (+)) |
| 136 to 137 °C | CCOC(=O)C(=O)c1ccc(OC)s1 |
| 225 to 226 °C | CC1(O)CCC2(C)C(CCC3C2CCC2(C)C(c4cn5ccccc5n4)CCC32)C1 (configuration not stated) |
| 185 to 187 °C | CC(C)(C)c1cc(NC(=O)NCCc2ccc([N+](=O)[O-])cc2)cc(C(C)(C)C)c1O |
| 243 to 244 °C | COC(=O)Cn1nnc(NC(=O)C2c3ccccc3Oc3ccccc32)n1 |
| 232 to 233 °C | CCCC(CC)Nc1cc(C(=O)O)ccc1N1C(=O)CCC1(CO)CO (configuration not stated) |
| 117 to 120 °C | CCC(C(=O)N(C)C)n1nc(-c2ccccc2)cc1C (configuration not stated) |
| 155 to 157 °C | Cc1ccccc1C(=O)c1ccc(C(=O)O)o1 |
| 121 to 123 °C | CCOC(=O)c1c(Cl)nn(C)c1S(N)(=O)=O |
| 131 to 133 °C | COc1ccc(C(O)(CN)Cc2ccccc2N)cc1OC (configuration not stated) |
| 138 to 140 °C | O=C(NCCO)C(=O)c1ccc(OCCOc2ccc3ccccc3c2)cc1 |
| 253 to 254 °C | N=C(Cc1ccccc1-n1cnc2cnc3ccc(-c4ccccc4)cc3c21)NO |
| 150 to 151 °C | CC(=O)NC1C(O)OC(CO)C(O)C1OC(C)C(=O)NC(C)C(=O)NC(CCC(=O)O)C(N)=O (configuration not stated) |
| 276 to 278 °C | Cc1nc(-c2ccc(C(=O)Nc3ccc(Cl)cc3)cc2)sc1C(=O)O |
| 159 to 161 °C | COC1(c2cc(F)cc(Oc3nc(-c4ccccc4)c(-c4ccc(S(N)(=O)=O)cc4)o3)c2)CCOCC1 |
| 280 °C | O=C(NN=Cc1ccc(C(F)(F)F)c([N+](=O)[O-])c1)c1ccc(O)cc1 |
| 136 to 137 °C | COc1cccc2c1nc(C(F)F)n2-c1nc(Nc2ccc(N(C)C)nc2)nc(N2CCOCC2)n1 |
| 189 °C | CN(C)S(=O)(=O)c1ccc(C(=O)O)c(C(F)(F)F)c1 |
| 150 to 152 °C | CC(=O)Nc1ccc(C=CC(=O)c2ccc(OCC=C(C)C)cc2O)cc1 |

| melting point | SMILES |
| --- | --- |
| 170 to 171 °C | O=C(CS(=O)(=O)c1ccc(Cl)cc1C(=O)O)c1ccccc1 |
| 59 to 61 °C | CCOC(=O)/C=C/c1ccc(OC(C)=O)c(Cl)c1 |
| 204 to 206 °C | COc1ccc2c(c1)Nc1cccc(S(C)(=O)=O)c1S2 |
| 125 to 126 °C | CC(C)(CSc1ccc(Cl)cc1)C(Cn1ccnc1)=NO |
| 237 to 239 °C | COc1cc(OCc2ccccn2)ccc1/C=C/c1cc(/C=C/c2ccc3cc[nH]c3c2)n[nH]1 |
| > 250 °C | COc1ccccc1C(=O)Nc1nc(-c2ccccc2)c(-c2ccc(=O)n(C(C)C)n2)s1 |
| 302 to 305 °C | CCCn1cc2c(C3C(=O)Nc4ccc(C#N)cc43)nc(NCCc3cccnc3)nc2n1 (configuration not stated) |
| 97 °C | COc1ccc2c(c1OC)CCN(CCc1ccc([N+](=O)[O-])cc1)C2 |
| 297 °C | COc1ccc(-c2[nH]nc3c2C(=O)c2c(NC(=O)C4CCC4)cccc2-3)cc1 |
| 114 to 117 °C | CC(C)N1CCN=C1c1ccccc1C(=O)c1ccc(Cl)cc1 |
| 289 to 292 °C | CCc1ccc(-c2sc(NC(=O)c3ccc(S(=O)(=O)N4CCCC4C(=O)O)cc3)nc2-c2ccc(Cl)cc2)cc1 (configuration not stated) |
| 182 to 184 °C | Cn1cccc1C(=O)C(C#N)C(=O)Nc1ccc(O)cc1 (configuration not stated) |
| 367 to 374 °C | CN1Cc2c(C(=O)N3CCN(C(=O)c4ncn5c4CN(C)C(=O)c4cc(Cl)ccc4-5)CC3)ncn2-c2ccc(Cl)cc2C1=O |
| 165 to 168 °C | O=C1C(c2ccccc2)c2ccccc2SN1c1ccccc1O (configuration not stated) |
| 158 to 161 °C | Cn1c2c(cnc3ccccc32)c(=O)n1-c1ccc(Cl)cc1 |
| 85 to 87 °C | Cc1csc(C)c1NC(=O)CO |
| 205 to 209 °C | CCON=Cc1cc(-n2c(=O)cc(C(F)(F)F)[nH]c2=O)c(Cl)cc1Cl |
| 224 to 225 °C | NC(=O)c1sc(Nc2ccc(Cl)cc2)c2c1CCc1cnoc1-2 |
| 352 °C | O=C(O)c1ccc2c(c1)C1(c3ccccc3-2)c2ccccc2-c2ccc(C(=O)O)cc21 |
| 84 to 85 °C | CCCCCCCCSCCCN=C=O |
| 98 to 100 °C | COc1ccccc1N1CCN(C(=O)NCCN(C)C)CC1 |
| 145 to 146 °C | Cc1c(C)c(Br)c2c(c1C)C(=O)C(C)(C)O2 |
| 149 to 152 °C | COC(=O)c1ccc(C(=O)N2CCN(c3ncccc3[N+](=O)[O-])CC2)cc1 |

| SMILES | melting point |
| --- | --- |
| Fc1ccc(CBr)c(I)c1 | 71 to 73 °C |
| C#Cc1ccc2c(c1)C(c1ccccc1Cl)=NCc1nnc(C)n1-2 | 304 to 306 °C |
| Cn1nc(C(F)(F)F)c(CS(=O)(=O)C2=NOC(C)(C)C2)c1OC(F)F | 129 to 130 °C |
| O=C(OC1CCCCC1)c1ncn2c1[C@@H]1CCN1C(=O)c1c(Br)cccc1-2 | 203 to 204 °C |
